The text below walks through data of patent US10543212B2, “Substituted amines for treating cardiac diseases” (Cardurion Pharmaceuticals, LLC, priority 2017, dated 2020).

Usually IC50 stands for the midpoint of a concentration-inhibition curve.

Where a name gives a salt, the structure may show the parent alone. Where only a bound is given, the exact number is not on record here.

T1 sequence (Q13557 1-478 isoform Q13557-12): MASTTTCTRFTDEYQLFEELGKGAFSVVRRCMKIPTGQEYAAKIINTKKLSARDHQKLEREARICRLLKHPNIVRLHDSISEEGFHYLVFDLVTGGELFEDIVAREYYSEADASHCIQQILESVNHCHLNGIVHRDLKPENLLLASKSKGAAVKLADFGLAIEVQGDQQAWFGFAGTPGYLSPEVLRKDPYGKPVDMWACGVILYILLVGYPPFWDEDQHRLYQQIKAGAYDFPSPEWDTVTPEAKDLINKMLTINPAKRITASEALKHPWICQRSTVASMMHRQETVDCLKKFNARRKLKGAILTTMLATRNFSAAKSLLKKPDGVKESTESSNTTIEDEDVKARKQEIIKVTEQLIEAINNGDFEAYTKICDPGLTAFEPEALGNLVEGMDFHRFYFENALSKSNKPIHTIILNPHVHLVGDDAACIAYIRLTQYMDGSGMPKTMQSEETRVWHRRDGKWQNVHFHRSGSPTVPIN

One test has as its target T1, Full-length, GST-tagged, human CaMKIIδ (Homo sapiens, UniProt Q13557).
T1 construct: Full-Length, Glutathione-S-Transferase(GST)-Tagged, Human CaMKIIδ was purchased from Carna Biosciences; purchased Carna Biosciences 02-111
Description: CaMKIIδ binding assay (TR-FRET with BODIPY-labeled probe ligand). The settings on record: CaMKIIδ binding assay, results of Table 2. The gist of the method:
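Compounds were tested as 4-fold, eight-point series for 1 hr at room temperature, and IC50 was obtained by logistic fitting against a 3 μM parent-compound control. Signal came from displacement of a 300 nM BODIPY ligand from 0.5 nM GST-CaMKIIδ, detected via Tb-anti-GST in calmodulin/Ca2+ (pH 7.6).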
(In general: TR-FRET usually uses a lanthanide donor and a delayed reading to cut background.)
Molecule `COCC(=O)N1CCc2cc(Nc3ncc(-c4ccc(Cl)c(O[C@@H](C)Cn5cnnn5)c4)cn3)c(OC)cc2C1` [Example 469, (S)-1-(6-((5-(3-((1-(1H-tetrazol-1-yl)propan-2-yl)oxy)-4-chlorophenyl)pyrimidin-2-yl)amino)-7-methoxy-3,4-dihydroisoquinolin-2(1H)-yl)-2-methoxyethan-1-one] displayed a 50% inhibitory concentration (IC50) of 10 to 100 nM.
The same measure, in the same setting: next, `COc1cc2c(cc1Nc1ncc(-c3ccc(Cl)c(O[C@@H](C)Cn4cnnn4)c3)cn1)CCN(c1ccnc(C)n1)C2` [Example 505, (S)-N-(5-(3-((1-(1H-tetrazol-1-yl)propan-2-yl)oxy)-4-chlorophenyl)pyrimidin-2-yl)-7-methoxy-2-(2-methylpyrimidin-4-yl)-1,2,3,4-tetrahydroisoquinolin-6-amine]: 10 to 100 nM; `C[C@@H](Cn1cnnn1)Oc1cc(-c2cnc(Nc3cn(C4CCN(Cc5nccs5)CC4)nc3C(F)(F)F)nc2)ccc1Cl` [Example 551, (S)-5-(3-((1-(1H-tetrazol-1-yl)propan-2-yl)oxy)-4-chlorophenyl)-N-(1-(1-(thiazol-2-ylmethyl)piperidin-4-yl)-3-(trifluoromethyl)-1H-pyrazol-4-yl)pyrimidin-2-amine]: 10 to 100 nM; `C[C@@H](Cn1cnnn1)Oc1cc(-c2cnc(Nc3cc(C4CCNCC4)c(F)cc3F)nc2)ccc1Cl` [Example 575, (S)-5-(3-((1-(1H-tetrazol-1-yl)propan-2-yl)oxy)-4-chlorophenyl)-N-(2,4-difluoro-5-(piperidin-4-yl)phenyl)pyrimidin-2-amine]: < 10 nM.
`COc1cc2c(cc1Nc1ncc(-c3ccc(C#N)c(O[C@@H](C)Cn4cnnn4)c3)cn1)CCN(C(=O)C(F)(F)F)C2` [Example 458, (S)-2-((1-(1H-tetrazol-1-yl)propan-2-yl)oxy)-4-(2-((7-methoxy-2-(2,2,2-trifluoroacetyl)-1,2,3,4-tetrahydroisoquinolin-6-yl)amino)pyrimidin-5-yl)benzonitrile] came in with a half-maximal inhibitory concentration (IC50) of 10 to 100 nM.
As for `C[C@@H](Cn1cnnn1)Oc1cc(-c2cnc(Nc3cn(C4CCN(CC5COC5)CC4)nc3C(F)(F)F)nc2)ccc1Cl` [Example 489, (S)-5-(3-((1-(1H-tetrazol-1-yl)propan-2-yl)oxy)-4-chlorophenyl)-N-(1-(1-(oxetan-3-ylmethyl)piperidin-4-yl)-3-(trifluoromethyl)-1H-pyrazol-4-yl)pyrimidin-2-amine], the IC50 was < 10 nM.
Same read-out and setting: next, `C[C@@H](Cn1cnnn1)Oc1cc(-c2cnc(Nc3cn(C4CCN(C)CC4)nc3C(F)(F)F)nc2)ccc1Cl` [Example 487, (S)-5-(3-((1-(1H-tetrazol-1-yl)propan-2-yl)oxy)-4-chlorophenyl)-N-(1-(1-methylpiperidin-4-yl)-3-(trifluoromethyl)-1H-pyrazol-4-yl)pyrimidin-2-amine]: < 10 nM.

Staying with this test, now noted: CaMKIIδ binding assay; activity class per Table 2.
`CC(Cn1cnnn1)Oc1cc(-c2cnc(Nc3cn(CC4(O)CCC(C)(O)CC4)nc3OCC(F)(F)F)nc2)ccc1Cl` [Example 924, cis-1-((4-((5-(3-(((S)-1-(1H-tetrazol-1-yl)propan-2-yl)oxy)-4-chlorophenyl)pyrimidin-2-yl)amino)-3-(2,2,2-trifluoroethoxy)-1H-pyrazol-1-yl)methyl)-4-methylcyclohexane-1,4-diol]: the IC50 was < 10 nM.
With `CC(C)c1nn(C2CC3(C2)CN(C2CCOCC2)C3)cc1Nc1ncc(-c2ccc(Cl)c(O[C@@H](C)Cn3cnnn3)c2)cn1` [Example 936, (S)-5-(3-((1-(1H-tetrazol-1-yl)propan-2-yl)oxy)-4-chlorophenyl)-N-(3-isopropyl-1-(2-(tetrahydro-2H-pyran-4-yl)-2-azaspiro[3.3]heptan-6-yl)-1H-pyrazol-4-yl)pyrimidin-2-amine], the IC50 was < 10 nM.
As to `C[C@@H](Cn1cnnn1)Oc1cc(-c2cnc(Nc3cn(C4CC5(C4)CN(C4COCOC4)C5)nc3OCC(F)(F)F)nc2)ccc1Cl` [Example 965, (S)—N-(1-(2-(1,3-dioxan-5-yl)-2-azaspiro[3.3]heptan-6-yl)-3-(2,2,2-trifluoroethoxy)-1H-pyrazol-4-yl)-5-(3-((1-(1H-tetrazol-1-yl)propan-2-yl)oxy)-4-chlorophenyl)pyrimidin-2-amine], the IC50 was < 10 nM.
Same read-out and setting: to `C[C@@H](Cn1cnnn1)Oc1cc(-c2cnc(Nc3cn(C4CC5(C4)CN(C4CCOCC4)C5)nc3OCC(F)(F)F)nc2)ccc1C#N` [Example 938, (S)-2-((1-(1H-tetrazol-1-yl)propan-2-yl)oxy)-4-(2-((1-(2-(tetrahydro-2H-pyran-4-yl)-2-azaspiro[3.3]heptan-6-yl)-3-(2,2,2-trifluoroethoxy)-1H-pyrazol-4-yl)amino)pyrimidin-5-yl)benzonitrile] belongs < 10 nM.
Same read-out and setting: to `C[C@@H](Cn1cnnn1)Oc1cc(-c2cnc(Nc3cn(C4CC5(C4)CN(C4CCC4)C5)nc3OC3COC3)nc2)ccc1Cl` [Example 945, (S)-5-(3-((1-(1H-tetrazol-1-yl)propan-2-yl)oxy)-4-chlorophenyl)-N-(1-(2-cyclobutyl-2-azaspiro[3.3]heptan-6-yl)-3-(oxetan-3-yloxy)-1H-pyrazol-4-yl)pyrimidin-2-amine] belongs < 10 nM.

The same test, now with this note: Table 2; CaMKIIδ binding assay, activity given as class A/B/C.
For the molecule `C[C@@H](Cn1cnnn1)Oc1cc(-c2cnc(Nc3cn([C@H]4CC[C@@H](N5CCC5)CC4)nc3C(F)(F)F)nc2)ccc1C#N` [Example 773, 2-(((S)-1-(1H-tetrazol-1-yl)propan-2-yl)oxy)-4-(2-((1-(cis-4-(azetidin-1-yl)cyclohexyl)-3-(trifluoromethyl)-1H-pyrazol-4-yl)amino)pyrimidin-5-yl)benzonitrile], the IC50 was < 10 nM.
As to `Cc1ccc(-c2cnc(Nc3cn(C4CCN(C5CCOCC5)CC4)nc3OCC(F)(F)F)nc2)cc1O[C@@H](C)Cn1cnnn1` [Example 788, (S)-5-(3-((1-(1H-tetrazol-1-yl)propan-2-yl)oxy)-4-methylphenyl)-N-(1-(1-(tetrahydro-2H-pyran-4-yl)piperidin-4-yl)-3-(2,2,2-trifluoroethoxy)-1H-pyrazol-4-yl)pyrimidin-2-amine], the half-inhibitory concentration (IC50) is < 10 nM.
As to `C[C@@H](Cn1cnnn1)Oc1cc(-c2cnc(Nc3cn(CC(C)(C)NC(=O)OC(C)(C)C)nc3C(F)(F)F)nc2)ccc1Cl` [Example 860, tert-butyl (S)-(1-(4-((5-(3-((1-(1H-tetrazol-1-yl)propan-2-yl)oxy)-4-chlorophenyl)pyrimidin-2-yl)amino)-3-(trifluoromethyl)-1H-pyrazol-1-yl)-2-methylpropan-2-yl)carbamate], the IC50 is ≥ 100 nM.
As for `C[C@@H](Cn1cnnn1)Oc1cc(-c2cnc(Nc3cn([C@H]4CC[C@H](N5CCOCC5)CC4)nc3OCC(F)(F)F)nc2)ccc1C#N` [Example 817, 2-(((S)-1-(1H-tetrazol-1-yl)propan-2-yl)oxy)-4-(2-((1-(trans-4-morpholinocyclohexyl)-3-(2,2,2-trifluoroethoxy)-1H-pyrazol-4-yl)amino)pyrimidin-5-yl)benzonitrile hydrochloride], the IC50 is < 10 nM.
Regarding `C[C@@H](Cn1cnnn1)Oc1cc(-c2cnc(Nc3cn(C)nc3OCC(F)(F)F)nc2)ccc1C#N` [Example 765, (S)-2-((1-(1H-tetrazol-1-yl)propan-2-yl)oxy)-4-(2-((1-methyl-3-(2,2,2-trifluoroethoxy)-1H-pyrazol-4-yl)amino)pyrimidin-5-yl)benzonitrile], the IC50 was < 10 nM.
On to `Cc1ccc(-c2cnc(Nc3cn([C@H]4CC[C@@H](N5CCOCC5)CC4)nc3OCC(F)(F)F)nc2)cc1O[C@@H](C)Cn1cnnn1` [Example 812, 5-(3-(((S)-1-(1H-tetrazol-1-yl)propan-2-yl)oxy)-4-methylphenyl)-N-(1-(cis-4-morpholinocyclohexyl)-3-(2,2,2-trifluoroethoxy)-1H-pyrazol-4-yl)pyrimidin-2-amine], for which the half-inhibitory concentration (IC50) was < 10 nM.
Still for that read-out and setting: next, `C[C@@H](Cn1cnnn1)Oc1cc(-c2cnc(Nc3cn([C@H]4CC[C@@H](N5CCOCC5)CC4)nc3C(F)(F)F)nc2)ccc1Cl` [Example 781, 5-(3-(((S)-1-(1H-tetrazol-1-yl)propan-2-yl)oxy)-4-chlorophenyl)-N-(1-(cis-4-morpholinocyclohexyl)-3-(trifluoromethyl)-1H-pyrazol-4-yl)pyrimidin-2-amine]: < 10 nM.

The test is the same for the next values; noted with them: Table 2; activity class for CaMKIIδ.
Turning to `C[C@@H](Cn1cnnn1)Oc1cc(-c2cnc(Nc3cn(CC(=O)Nc4ccccc4)nc3C(F)(F)F)nc2)ccc1Cl` [Example 617, (S)-2-(4-((5-(3-((1-(1H-tetrazol-1-yl)propan-2-yl)oxy)-4-chlorophenyl)pyrimidin-2-yl)amino)-3-(trifluoromethyl)-1H-pyrazol-1-yl)-N-phenylacetamide], the IC50 lay within 10 to 100 nM.
For `C[C@@H](Cn1cnnn1)Oc1cc(-c2cnc(Nc3cn(C4CCNC4)nc3C(F)(F)F)nc2)ccc1Cl` (stereo partly drawn) [Example 618, 5-(3-(((S)-1-(1H-tetrazol-1-yl)propan-2-yl)oxy)-4-chlorophenyl)-N-(1-(pyrrolidin-3-yl)-3-(trifluoromethyl)-1H-pyrazol-4-yl)pyrimidin-2-amine], the concentration for half-maximal inhibition (IC50) is < 10 nM.
`C[C@@H](Cn1cnnn1)Oc1cc(-c2cnc(Nc3ccn(C(C)(C)C)n3)nc2)ccc1Cl` [Example 715, (S)-5-(3-((1-(1H-tetrazol-1-yl)propan-2-yl)oxy)-4-chlorophenyl)-N-(1-(tert-butyl)-1H-pyrazol-3-yl)pyrimidin-2-amine]: the half-maximal inhibitory concentration (IC50) was ≥ 100 nM.
The molecule `C[C@@H](Cn1cnnn1)Oc1cc(-c2cnc(Nc3ccn(Cc4ccccc4)n3)nc2)ccc1Cl` [Example 714, (S)-5-(3-((1-(1H-tetrazol-1-yl)propan-2-yl)oxy)-4-chlorophenyl)-N-(1-benzyl-1H-pyrazol-3-yl)pyrimidin-2-amine] came in with an IC50 of 10 to 100 nM.
